Measured values as given in patent US20050197372A1 (priority 2002, published 2005).

Tests used:
Assay type in all cases: cell-based, human
[1] = system: shear-induced platelet aggregation; assay: PFA-100 closure time, epinephrine/collagen cartridge; conditions: baseline 201 ± 22
Method: (§1) None of them received aspirin or any other anti-platelet agents. All subjects underwent blood sampling after at least 30 minutes of rest and 2 or more hours of fasting. Blood was drawn between 8 and 10 a.m. in order to avoid any diurnal influence and sampled from an antecubital vein using a 21-gauge butterfly needle containing 3.8% sodium citrate (1:9 volume) after having discarded the first 1.5 ml of free running blood. Eleven Vacutainer tubes (4.5 ml) were collected for a total of 49 ml of whole blood-citrate mixture from each study participant. One tube was kept as an internal control and was incubated with buffer solution. […] To avoid possible observer bias, blood samples were coded and blinded. Sampling procedures, and platelet studies were performed by individuals unaware of the protocol.
The platelet function analyzer (PFA-100′, Dade Behring, Deerfield, Ill.) is a device that simulates changes in primary hemostasis after injury to a small vessel under flow conditions. Kundu S K, et al., Semin Thromb Hemost 1995; 21(Suppl 2): 106-112. The time required to obtain occlusion of the aperture was digitally recorded as a measure of shear-induced platelet aggregation. Closure time determinations were performed in duplicate.

[2] = system: platelets (agglutination with fibrinogen-coated beads); assay: Ultegra rapid platelet-function assay (RPFA-ASA); conditions: baseline 159 ± 27
Method: as §1
A rapid platelet-function assay cartridge test (RPFA-ASA, Ultegra® Accumetrics, Inc., San Diego, Calif., USA), using polystyrene beads coated cartridges with lyophilized human fibrinogen-coated microparticles, and propyl gallat served as an agonist. The whole blood citrate mixture was added to the cartridge, and agglutination between platelets and coated beads was recorded. The data mirrored turbidometric platelet aggregation and reflected the degree of platelet prostaglandin blockade. Smith J W, et al., Circulation 1999; 99: 620-625. Ultegra® assays were performed in duplicate. An electronic quality control test was performed on each instrument every day of use prior to performing any subject samples.

[3] = system: platelet/endothelial cell adhesion molecule-1 (PECAM-1, CD31); assay: Whole blood flow cytometry, PECAM-1 expression; conditions: for Expression of platelet/endothelial cell adhesion molecule-1 (PECAM-1, CD31): baseline 69.2 ± 10.3
Method: as §1
(§2) The expression of platelet receptors was determined by using the following monoclonal antibodies: CD31 (platelet endothelial cell adhesion molecule (PECAM-1), CD41 (glycoprotein [GP] IIb/IIIa, (IIb (3), CD42b (GP Ib), CD 51/CD61 ((v (3, or vitronectin receptor), CD62p (P-selectin), CD107a (lysosome associated membrane protein-1; LAMP-1), CD 107b (LAMP-2), CD151 (platelet/endothelial tetraspan antigen-3; PETA-3), and PAC-1 for fibrinogen-platelet (PharMingen, San Diego, Calif.). Platelet-leukocyte interactions were assessed by using dual antibodies for a pan-platelet marker (CD 151), together with CD14, a monocyte/macrophage marker. The blood-citrate mixture (50 μl) was diluted with 450 μl Tris buffered saline (TBS) (10 mmol/L Tris, 0.15 mol/L sodium chloride) and mixed by gently inverting an Eppendorf tube 2 times. Five μl of the corresponding antibodies were then added to each solution and the samples were incubated for 30 minutes. After incubation, 400 μl of 2% buffered paraformaldehyde was added for fixation. The samples were analyzed by a Becton Dickinson FACScan flow cytometer set up to measure fluorescent light scatter, as described in Gurbel P A, et al., J Am Coll Cardiol. 1998; 31: 1466-1473. The data were collected in list mode files and then analyzed. P selectin was expressed as percent positive cells as described in Gurbel P A, et al, Am Heart J 2000; 139: 320-328. Other antigens were expressed as log mean fluorescence intensity.

[4] = system: platelet glycoprotein IIb/IIIa antigen (GPIIb, CD41); assay: Whole blood flow cytometry, GP IIb/IIIa antigen expression; conditions: for Expression of platelet glycoprotein IIb/IIIa antigen (GPIIb, CD41): baseline 521.8 ± 98.2
Method: as §1, §2

[5] = system: glycoprotein Ib (GPIb, CD42b); assay: Whole blood flow cytometry, GP Ib expression; conditions: for Expression of glycoprotein Ib (GPIb, CD42b): baseline 246.4 ± 26.7
Method: as §1, §2

[6] = system: platelet vitronectin receptor (CD51/CD61); assay: Whole blood flow cytometry, vitronectin receptor expression; conditions: whole blood flow cytometry
Method: as §1, §2

[7] = system: lysosome associated membrane protein -1 (LAMP-1, CD107a); assay: Whole blood flow cytometry, LAMP-1 expression; conditions: baseline 8.7 ± 3.2
Method: as §1, §2

[8] = system: platelet/endothelial tetraspan antigen -3 (PETA-3, CD151); assay: Whole blood flow cytometry, PETA-3 expression; conditions: for Expression of platelet/endothelial tetraspan antigen -3 (PETA-3, CD151): baseline 88.7 ± 24.2
Method: as §1, §2

[9] = system: platelet-leukocyte microparticles (CD151 + CD14); assay: Whole blood flow cytometry, platelet-leukocyte microparticles; conditions: for Formation of platelet-leukocyte microparticles (CD151 + CD14): baseline 92.2 ± 19.3
Method: as §1, §2

[10] = system: Glycoprotein IIb/IIIa activity (fibrinogen binding, PAC-1); assay: Whole blood flow cytometry, GP IIb/IIIa activity (PAC-1); conditions: for Glycoprotein IIb/IIIa activity (fibrinogen binding, PAC-1): baseline 10.3 ± 2.8
Method: as §1, §2

In the case of CCCCC(=O)N(Cc1ccc(-c2ccccc2-c2nnn[nH]2)cc1)[C@H](C(=O)O)C(C)C [Valsartan, (S)-N-(1-carboxy-2-methyl-prop-1-yl)-N-pentanoyl-N-[2;(1H-tetrazol-5-yl)biphenyl-4-yl-methyl]amine, reference compound], the “PFA-100 closure time with the epinephrine/collagen cartridge” value ([1]; drug 10 nM) was 187 ± 30 s, the “PFA-100 closure time with the epinephrine/collagen cartridge” value ([1]; drug 100 nM) was 209 ± 21 s and the “PFA-100 closure time with the epinephrine/collagen cartridge” value ([1]; drug 1 μM) was 268 ± 19 s. For the same compound, the “PFA-100 closure time with the epinephrine/collagen cartridge” value ([1]; drug 10 μM) was 278 ± 20 s, the “PFA-100 closure time with the epinephrine/collagen cartridge” value ([1]; drug 100 μM) was 200 ± 27 s and the “Ultegra Analyzer” value ([2]; drug 10 nM) was 164 ± 16 platelet activation units. The “Ultegra Analyzer” value ([2]; drug 100 nM) was 160 ± 29 platelet activation units, the “Ultegra Analyzer” value ([2]; drug 1 μM) was 129 ± 26 platelet activation units and the “Ultegra Analyzer” value ([2]; drug 10 μM) was 130 ± 31 platelet activation units. The “Ultegra Analyzer” value ([2]; drug 100 μM) was 152 ± 19 platelet activation units, the “Expression of platelet/endothelial cell adhesion molecule-1 (PECAM-1, CD31)” value ([3]; drug 10 nM) was 71.8 ± 11.9 log MFI and the “Expression of platelet/endothelial cell adhesion molecule-1 (PECAM-1, CD31)” value ([3]; drug 100 nM) was 70.6 ± 12.6 log MFI. For the same compound, the “Expression of platelet/endothelial cell adhesion molecule-1 (PECAM-1, CD31)” value ([3]; drug 1 μM) was 74.5 ± 16.2 log MFI, the “Expression of platelet/endothelial cell adhesion molecule-1 (PECAM-1, CD31)” value ([3]; drug 10 μM) was 68.2 ± 16.2 log MFI and the “Expression of platelet/endothelial cell adhesion molecule-1 (PECAM-1, CD31)” value ([3]; drug 100 μM) was 70.6 ± 15.8 log MFI. For the same compound, the “Effect on PECAM-1 (CD31) (in words)” value ([3]; whole blood flow cytometry) was “not associated with any effect”, the “Expression of platelet glycoprotein IIb/IIIa antigen (GPIIb, CD41)” value ([4]; drug 10 nM) was 531.2 ± 102.5 log MFI and the “Expression of platelet glycoprotein IIb/IIIa antigen (GPIIb, CD41)” value ([4]; drug 100 nM) was 502.9 ± 112.7 log MFI. The “Expression of platelet glycoprotein IIb/IIIa antigen (GPIIb, CD41)” value ([4]; drug 1 μM) was 498.2 ± 94.5 log MFI, the “Expression of platelet glycoprotein IIb/IIIa antigen (GPIIb, CD41)” value ([4]; drug 10 μM) was 506.7 ± 100.1 log MFI and the “Expression of platelet glycoprotein IIb/IIIa antigen (GPIIb, CD41)” value ([4]; drug 100 μM) was 455.2 ± 99.6 log MFI. The “Effect on expression of GP IIb/IIIa (CD 41) (in words)” value ([4]; whole blood flow cytometry) was “decreased expression of CD41 only at a high dose”, the “Expression of glycoprotein Ib (GPIb, CD42b)” value (“Expression of glycoprotein Ib” below) ([5]; drug 10 nM) was 256.4 ± 31.4 log MFI and the “Expression of glycoprotein Ib” value ([5]; drug 100 nM) was 248.7 ± 20.9 log MFI. For the same compound, the “Expression of glycoprotein Ib” value ([5]; drug 1 μM) was 264.8 ± 18.2 log MFI, the “Expression of glycoprotein Ib” value ([5]; drug 10 μM) was 244.3 ± 46.9 log MFI and the “Expression of glycoprotein Ib” value ([5]; drug 100 μM) was 255.9 ± 19.7 log MFI. For the same compound, the “Effect on GP Ib (CD42) (in words)” value ([5]; whole blood flow cytometry) was “not associated with any effect”, the “Effect on expression of vitronectin receptors (in words)” value [6] was “moderately reduced” and the “Expression of lysosome associated membrane protein -1 (LAMP-1, CD107a)” value (shortened to “Expression … (LAMP-1, CD107a)”) ([7]; drug 10 nM) was 9.1 ± 3.8 log MFI. The “Expression … (LAMP-1, CD107a)” value ([7]; drug 100 nM) was 8.9 ± 2.7 log MFI, the “Expression … (LAMP-1, CD107a)” value ([7]; drug 1 μM) was 9.4 ± 3.9 log MFI and the “Expression … (LAMP-1, CD107a)” value ([7]; drug 10 μM) was 6.5 ± 3.2 log MFI. The “Expression … (LAMP-1, CD107a)” value ([7]; drug 100 μM) was 10.1 ± 4.5 log MFI, the “Expression of platelet/endothelial tetraspan antigen -3 (PETA-3, CD151)” value ([8]; drug 10 nM) was 84.1 ± 19.7 log MFI and the “Expression of platelet/endothelial tetraspan antigen -3 (PETA-3, CD151)” value ([8]; drug 100 nM) was 91.5 ± 23.4 log MFI. The “Expression of platelet/endothelial tetraspan antigen -3 (PETA-3, CD151)” value ([8]; drug 1 μM) was 81.6 ± 20.1 log MFI, the “Expression of platelet/endothelial tetraspan antigen -3 (PETA-3, CD151)” value ([8]; drug 10 μM) was 87.9 ± 18.3 log MFI and the “Expression of platelet/endothelial tetraspan antigen -3 (PETA-3, CD151)” value ([8]; drug 100 μM) was 91.7 ± 22.1 log MFI. The “Effect on PETA-3 (CD151) (in words)” value ([8]; whole blood flow cytometry) was “not associated with any effect”, the “Formation of platelet-leukocyte microparticles (CD151 + CD14)” value (“Formation” for short) ([9]; drug 10 nM) was 91.2 ± 20.5 log MFI and the “Formation” value ([9]; drug 100 nM) was 88.4 ± 21.9 log MFI. For the same compound, the “Formation” value ([9]; drug 1 μM) was 93.5 ± 23.8 log MFI, the “Formation” value ([9]; drug 10 μM) was 96.5 ± 18.7 log MFI and the “Formation” value ([9]; drug 100 μM) was 90.5 ± 19.2 log MFI. The “Effect on platelet-leukocyte microparticles (CD151+14) (in words)” value ([9]; whole blood flow cytometry) was “not associated with any effect”, the “Glycoprotein IIb/IIIa activity (fibrinogen binding, PAC-1)” value (“Glycoprotein IIb/IIIa activity” below) ([10]; drug 10 nM) was 9.3 ± 2.87 log MFI and the “Glycoprotein IIb/IIIa activity” value ([10]; drug 100 nM) was 11.2 ± 3.4 log MFI. The “Glycoprotein IIb/IIIa activity” value ([10]; drug 1 μM) was 7.0 ± 2.9 log MFI, the “Glycoprotein IIb/IIIa activity” value ([10]; drug 10 μM) was 6.9 ± 2.7 log MFI and the “Glycoprotein IIb/IIIa activity” value ([10]; drug 100 μM) was 9.9 ± 3.1 log MFI. For the same compound, the “Effect on fibrinogen binding (PAC-1) (in words)” value ([10]; whole blood flow cytometry) was “slightly reduced”.
